Assay results from patent US12692274B2, “Tetrahydroisoquinoline derivatives for the treatment of red blood disorders and inflammatory diseases” (Sanofi, priority 2020, dated 2026).
Where “and” joins values, the source holds several entries; their conditions need not be identical. Equal values may be shown once.

Tests used:
[1] = system: NQO1 activation in BEAS-2B cells; assay: BEAS-2B cellular MTT assay of NQO1 activation, 0% HSA; type: cell-based
Summary of the method: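 For the 0% HSA condition, cells were seeded into collagen plates in HSA-free medium. Culture was BEAS-2B in BEBM plus BEGM SingleQuots lacking GA-1000, held under 70% confluence, at a seeding density reaching 95-100% confluence by 48 h.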

[2] = system: NQO1 activation in BEAS-2B cells; assay: BEAS-2B cellular MTT assay of NQO1 activation, 0.3% HSA; type: cell-based
Method: The growth rate of the BEAS-2B cells changed based on the lot of BEGM SingleQuots in the BEGM media. The cell growth rate was determined for each lot of SingleQuots. Ideally, cells were thawed into media with the new lot of SingleQuots and grown for two passages before testing; however, growing an active culture in the new lot of media for two to three passages before testing was also acceptable. Until the cell growth rate was determined, cells were seeded at different densities (cells/cm^2) in multiple tissue culture flasks in order to avoid the cells becoming more than 70% confluent. Cells should not go above 70% confluent as the cells differentiate when they become confluent. After the cells were grown in the new lot of media as described above, the number of cells per well needed to seed in the collagen plates was determined by seeding different numbers of cells per well and incubating for 48 hours. Cell confluency was checked after 48 hours and a cell number that results in just below to just above confluency was chosen for future plate seeding. Cell confluency in the assay plate was 95-100% confluent after 48 hours.
Cell media consists of BEBM basal media with the BEGM SingleQuots added. SingleQuots vials were thawed in the tissue culture hood, and GA-1000 (Gentamicin-Amphotericin) was not added.
If complete media was to be used immediately, BEBM basal media was warmed to room temperature in the hood, but not as high as 37° C. When the media was made for future use, SingleQuots were added to cold BEBM. One at a time, the SingleQuots components (except GA-1000) were added to the BEBM media. After removal of each component from the vial, the vial was rinsed with 0.5-1 mL of BEBM (depending on the volume the vial could hold) and added to the bottle of BEBM. Once all components were added, the label that comes with the SingleQuots kit was put on the bottle of media and the date was recorded. The bottle of media was mixed by gentle shaking. The media was not filtered. This media was stored at 4° C., with any leftover media disposed of one month after the date the SingleQuots were added.
BEAS-2B Cell Splitting Protocol:
First, Trypsin was warmed to 37° C. in the water bath. The media was then warmed to room temperature by letting it sit in the tissue culture hood, but not as high as 37° C. The media was aspirated from flask(s) and the flask(s) were washed with PBS. From 1 to 1.5 mL of warm trypsin were added to each flask and incubated at 37° C. until cells came off the flask on their own (~8-10 minutes), with no vigorous tapping on the flask to detach the cells.
Media was added to each flask to a total volume of 8-10 mL per flask and transferred to 15 mL conical tube(s). The cells were spun down at 120 g for 5 minutes, level 5 brake. The cells can be spun down between 100 and 150 g. Next the media was aspirated and the cell pellet was resuspended in fresh media by pipetting up and down and flicking the tube side to side. Any clumps of cells that remained were allowed to settle to the bottom of the tube before the top suspension was transferred into another tube, leaving about 1 mL of media in the original tube. The 1 mL of media and cell clumps were mixed with a single channel p1000 pipette, and any remaining clumps were removed before adding the cells in suspension to the other tube. The suspension was mixed with a pipette, an aliquot was removed, and the cells were counted. The amount of cells/cm^2 desired was calculated and the required volume of cells was added to tissue culture flasks. For example, use of SingleQuots with ~6000 cells/cm^2 was appropriate for a three day incubation and ~3000 cells/cm^2 for a five day incubation. Optimal cell density differed depending on lot of SingleQuots. The flasks were incubated at 37° C. in 5% CO2.
Day One: Seeding BEAS-2B Cells in Collagen Plates:
Plate(s) were either seeded with 0.3% or 0% HSA. While the protocol was similar for both conditions any differences are noted herein below. […]

[3] = target: HIS-Keap1 full length / Biotin-Nrf2 (16-mer) (Homo sapiens, UniProt Q14145); assay: biochemical
Chain of HIS-Keap1 full length / Biotin-Nrf2 (16-mer) (Q14145 whole entry): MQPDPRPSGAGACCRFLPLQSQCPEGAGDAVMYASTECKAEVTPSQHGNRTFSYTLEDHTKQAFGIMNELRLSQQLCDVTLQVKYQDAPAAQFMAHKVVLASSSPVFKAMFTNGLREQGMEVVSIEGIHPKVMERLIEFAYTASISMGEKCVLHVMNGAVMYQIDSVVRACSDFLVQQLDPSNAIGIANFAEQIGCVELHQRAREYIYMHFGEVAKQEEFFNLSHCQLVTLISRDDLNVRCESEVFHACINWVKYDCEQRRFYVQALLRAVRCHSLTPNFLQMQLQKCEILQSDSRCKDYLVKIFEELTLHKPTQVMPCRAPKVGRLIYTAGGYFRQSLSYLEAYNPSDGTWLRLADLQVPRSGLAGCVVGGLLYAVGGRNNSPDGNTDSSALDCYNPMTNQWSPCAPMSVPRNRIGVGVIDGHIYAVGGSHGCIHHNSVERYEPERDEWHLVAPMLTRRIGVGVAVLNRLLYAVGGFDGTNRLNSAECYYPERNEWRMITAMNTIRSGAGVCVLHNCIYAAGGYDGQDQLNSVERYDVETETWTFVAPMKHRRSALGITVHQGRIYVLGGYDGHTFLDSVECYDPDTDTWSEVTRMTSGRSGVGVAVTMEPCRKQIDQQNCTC

[4] = Homo sapiens, serum free, read-out: BEAS EC50 (nM) serum free
[5] = serum free, read-out: BEAS EC50 (nM) serum free
[6] = Homo sapiens, BEAS+, read-out: BEAS+ EC50
[7] = Homo sapiens, Serum Free W, read-out: BEAS EC50 (nM) Serum Free W
[8] = Serum Free W, read-out: BEAS EC50 (nM) Serum Free W
[9] = BEAS+ W, read-out: BEAS+ W EC50
[10] = Homo sapiens, BEAS+ W, read-out: BEAS+ W EC50

Row | Compound | EC50 [1, 4] [nM] | EC50 [1, 5] [nM] | EC50 ([2]; BEAS+, read-out: BEAS+ EC50) [µM] | EC50 [2, 6] [µM] | IC50 [3] | EC50 [1, 7] [nM] | EC50 [1, 8] | EC50 [2, 9] | EC50 [2, 10] [µM]
1 | Cc1c2ccc3c1nnn3CCCOCCOc1cc(F)c(c(F)c1)C(=O)N1CCc3ccc(cc3C1)[C@@H]2[C@@H](C)C(=O)O [Compound 367] | 10.3 | 12.5 | 0.0123 | 0.0122 | 0.0004 µM |  |  |  | 
2 | COc1cc2ccc1CCCCCCn1nnc3c(C)c(ccc31)[C@H](CC(=O)O)c1ccc3c(c1)CN(CC3)C2=O [Compound 102] |  |  |  |  | 0.0045 µM and 0.0042 µM | 25.1 | 24.6 nM | 0.104 µM | 0.117
3 | Cc1c2ccc3c1nnn3CCCCCCc1c(F)c(F)c(c(F)c1F)C(=O)N1CCc3ccc(cc3C1)[C@@H]2CC(=O)O [Compound 90] |  |  |  |  | 0.0011 µM | 1.3 | 1 nM | 0.0035 µM | 0.0036
4 | Cc1c2ccc3c1nnn3CCCCCc1ccc(c3ncccc13)C(=O)N1CCc3ccc(cc3C1)[C@@H]2CC(=O)O [Compound 51] |  |  |  |  | 0.0003 µM and 0.0002 µM | 44.9 | 38.6 nM | 0.125 µM | 0.0706
5 | Cc1c2ccc3c1nnn3CCCCCc1ccc3c(c1)cc(n3C)C(=O)N1CCc3ccc(cc3C1)[C@H]2[C@H](C)C(=O)O [Compound 114] |  |  |  |  | 0.0004 µM | 0.1 | 0.2 nM | 0.0082 µM | 0.0098
6 | Cc1c2ccc3c1nnn3CCCCCCOc1ccc(cc1F)C(=O)N1CCc3ccc(cc3C1)C2CC(=O)O (stereo not drawn) [Compound 270] | 56.5 |  |  | 0.0559 | 0.004 µM and 0.0036 µM |  |  |  | 
7 | C[C@@H](C(=O)O)[C@@H]1c2ccc3c(c2)CN(CC3)C(=O)c2c(F)cc(cc2F)OCCCCCCn2nnc3cc1ccc32 [Compound 256] | > 10000 |  |  | > 10 | 0.0869 µM |  |  |  | 
8 | C[C@@H](C(=O)O)[C@H]1c2ccc3c(c2)CN(CC3)C(=O)c2ccc(cc2)OCCCCCCn2nnc3cc1ccc32 [Compound 324] | 6 |  |  | 0.0181 | 0.0004 µM |  |  |  | 
9 | Cc1c2ccc3c1nnn3CCCCCCc1ccc(cc1)C(=O)N1CCc3ccc(cc3C1)[C@@H]2[C@H](C)C(=O)O (racemic) [Compound 200] | 3.4 | 6.5 | 0.0093 | 0.0095 | 0.0873 µM and 0.0863 µM |  |  |  | 
10 | Cc1cc2ccc1C(=O)N1CCc3ccc(cc3C1)C(CC(=O)O)c1cnc(cc1C)OCCCCC2 (stereo not drawn) [Compound 163] | 2.6 | 3.3 | 0.0093 | 0.01 | 0.0024 µM |  |  |  | 
11 | Cc1c2ccc3c1nnn3CCCCCOc1ccc(c(Cl)c1)C(=O)N1CCc3ccc(cc3C1)C2CC(=O)O (stereo not drawn) [Compound 302] | 129 | 213 | 0.196 | 0.134 | 0.0008 µM and 0.0009 µM |  |  |  | 
12 | O=C(O)CC1c2ccc(nc2)OCCCCOc2ccc(cc2C(F)(F)F)C(=O)N2CCc3ccc1cc3C2 (stereo not drawn) [Compound 184] | 471 | 713 | 2.57 | 2.9 | 0.168 µM and 0.147 µM |  |  |  | 
13 | Cc1c2ccc3c1nnn3CCCCCc1ccc3c(c1)cc(n3C)C(=O)N1CCc3ccc(cc3C1)[C@@H]2[C@H](C)C(=O)O (racemic) [Compound 113] |  |  |  |  | 0.0011 µM and 0.0009 µM | 1.6 | 1.8 nM | 0.0487 µM | 0.0627
14 | COc1cc2ccc1C(=O)N1CCc3ccc(cc3C1)C(CC(=O)O)c1ccc3c(nnn3CCCCC2)c1C (stereo not drawn) [Compound 191] | 11.4 | 18 | 0.018 | 0.0205 | 0.0195 µM and 0.0204 µM |  |  |  | 
15 | Cc1cc2cc3c1CCN(C3)C(=O)c1ccc(cc1)CCCCCCn1nnc3c(C)c(cnc31)[C@@H]2CC(=O)O [Compound 92] |  |  |  |  | 0.0046 µM and 0.0039 µM | 23.6 | 24.8 nM | 0.141 µM | 0.115
16 | O=C(O)CC1c2ccc(nc2)OCCCCOc2cc(F)c(c(F)c2)C(=O)N2CCc3ccc1cc3C2 (stereo not drawn) [Compound 210] | 482 | 475 | 0.845 | 1.02 | 0.0037 µM and 0.004 µM |  |  |  | 
17 | Cc1c2ccc3c1nnn3CCCCCOc1ccc(c(F)c1)C(=O)N1CCc3ccc(cc3C1)C2CC(=O)O (stereo not drawn) [Compound 316] | 141 |  |  | 0.0779 | 0.0016 µM and 0.0009 µM |  |  |  | 
18 | Cc1cc2ncc1[C@H]([C@@H](C)C(=O)O)c1ccc3c(c1)CN(CC3)C(=O)c1ccc(cc1)C/C=C/CCO2 [Compound 59] |  |  |  |  | 0.0081 µM and 0.0073 µM | 1.7 | 1.6 nM | 0.0044 µM | 0.005
19 | O=C(O)CC1c2ccc3c(c2)CN(CC3)C(=O)c2c(F)cc(cc2F)OCCCCCCn2nnc3cc1ccc32 (stereo not drawn) [Compound 321] | 75.7 |  |  | 0.0889 | 0.0004 µM and 0.0001 µM |  |  |  | 
20 | Cc1cc2cnc1OCC/C=C/Cc1ccc(cc1)C(=O)N1CCc3ccc(cc3C1)[C@@H]2[C@@H](C)C(=O)O [Compound 83] |  |  |  |  | 4.42 µM and 3.91 µM | > 1000 | 1780 nM | 8.44 µM | > 10
21 | C[C@H](C(=O)O)[C@@H]1c2ccc(nc2)OCC/C=C/Cc2ccc(cc2)C(=O)N2CCc3ccc1cc3C2 [Compound 47] |  |  |  |  | 0.0264 µM | 26.2 | 26 nM and 28.7 nM | 0.0942 µM and 0.0969 µM | 0.14
22 | C[C@H](C(=O)O)[C@@H]1c2ccc(nc2)OCCCCCc2ccc(cc2)C(=O)N2CCc3ccc1cc3C2 (single isomer, unassigned) [Compound 127] | 0.3 |  | 0.0006 | 0.0004 | 0.0038 µM and 0.0039 µM |  |  |  | 
23 | COc1cc2ccc1CCCCCn1nnc3c(C)c(cnc31)C(CC(=O)O)c1ccc3c(c1)CN(CC3)C2=O (stereo not drawn) [Compound 165] | 11.7 | 13.3 | 0.0211 | 0.026 | 0.0017 µM and 0.0016 µM |  |  |  | 
24 | Cc1c2ccc3c1nnn3CCCCCc1ccc(nc1)C(=O)N1CCc3ccc(cc3C1)C2CC(=O)O (stereo not drawn) [Compound 228] | 524 | 471 | 0.667 | 0.771 | 0.0013 µM |  |  |  | 
25 | O=C(O)CC1c2ccc3c(c2)CN(CC3)C(=O)c2ccc(cc2F)CCCCCCn2nnc3cc1ccc32 (stereo not drawn) [Compound 278] | 136 |  |  | 0.159 | 1.8 nM (2×) and 1.4 nM and 1.3 nM |  |  |  | 
26 | O=C(O)CC1c2ccc(cc2)OCCCCCOc2ccc(cc2)C(=O)N2CCc3ccc1cc3C2 (stereo not drawn) [Compound 399] | 479 | 407 | 2 | 1.98 | > 1 µM and 0.335 µM |  |  |  | 
27 | Cc1cc2ccc1C(=O)N1CCc3ccc(cc3C1)[C@H](CC(=O)O)c1ccc3c(nnn3CCC/C=C/C2)c1C [Compound 389] | 147 | 153 | 0.409 | 0.231 | 0.0018 µM and 0.0019 µM |  |  |  | 
28 | Cc1c2cnc3c1nnn3CCCCCCc1ccc(cc1)C(=O)N1CCc3ccc(cc3C1)C2CC(=O)O (stereo not drawn) [Compound 216] | 1.8 | 2.5 | 0.0282 | 0.0358 | 0.0021 µM and 0.0023 µM |  |  |  | 
29 | Cc1c2cnc3c1nnn3CCCCCc1ccc3c(c1)cc(n3C)C(=O)N1CCc3ccc(cc3C1)C2CC(=O)O (stereo not drawn) [Compound 143] |  |  |  |  | 0.0007 µM | 2.2 | 2.6 nM | 0.0106 µM | 0.0103
